Assay results published in US20190054051A1, “DOPA Formulations for Treatments of Parkinson's Disease” (The Board of Trustees of the Leland Stanford Junior …, priority 2017, published 2019).

What was measured:
Δ Fos B = assay: Western blot of Δ Fos B accumulation in striatum; set-up: species or system mice; settings: mouse, in vivo
Experimental: After behavioral testing, mice again received their assigned injection and then, 45 minutes later, were decapitated under anesthesia. Tissue samples were processed as follows. Briefly, the brain was dissected, rapidly frozen on dry ice, and stored at −80° C. Striatal tissue was collected from 100 μm coronal slices cut at the level of striatum using a cryostat (Leica CM1950, Leica Biosystems Inc, Buffalo Groove, Ill.). Striatal samples from the intact and the lesioned hemisphere were separately collected in 150p1 of lysis solution (Totally RNA, Ambion, Austin, Tex.). Care was taken to make sure that the tissue samples were collected from similar regions in all the brain samples analyzed, since there are differences in the expression of GRKs from rostral to caudal CPu. […] Western blots were quantified using band densitometry in Image J software (NIH version). […] Results are represented as group mean±SEM and analyzed using one-way or repeated-measures ANOVA (RM-ANOVA), with post hoc Bonferroni tests. The mouse cylinder test was analyzed with RM-ANOVA, with group (DOPA and DOPA-ranitidine formulations) as a between-group factor and saline vs. DOPA treatment as a within-group factor. AIMs scores were analyzed using the Kruskal Wallis test for pre-testing (DOPA injected animals) and the Mann-Whitney U test for the post-testing sessions (DOPA vs DOPA-ranitidine formulations). […]

SAPK/JNK = assay: Western blot of phospho SAPK/JNK and total SAPK/JNK in striatum; assay type: in vivo, mice
Experimental: After behavioral testing, mice again received their assigned injection and then, 45 minutes later, were decapitated under anesthesia. Tissue samples were processed as follows. Briefly, the brain was dissected, rapidly frozen on dry ice, and stored at −80° C. Striatal tissue was collected from 100 μm coronal slices cut at the level of striatum using a cryostat (Leica CM1950, Leica Biosystems Inc, Buffalo Groove, Ill.). Striatal samples from the intact and the lesioned hemisphere were separately collected in 150p1 of lysis solution (Totally RNA, Ambion, Austin, Tex.). Care was taken to make sure that the tissue samples were collected from similar regions in all the brain samples analyzed, since there are differences in the expression of GRKs from rostral to caudal CPu. […]
Western blots were quantified using band densitometry in Image J software (NIH version). […] Results are represented as group mean±SEM and analyzed using one-way or repeated-measures ANOVA (RM-ANOVA), with post hoc Bonferroni tests. The mouse cylinder test was analyzed with RM-ANOVA, with group (DOPA and DOPA-ranitidine formulations) as a between-group factor and saline vs. DOPA treatment as a within-group factor. AIMs scores were analyzed using the Kruskal Wallis test for pre-testing (DOPA injected animals) and the Mann-Whitney U test for the post-testing sessions (DOPA vs DOPA-ranitidine formulations). […]

Compound	Δ Fos B accumulation on the lesioned side (Δ Fos B)	phospho JNK level in both the intact and the lesioned hemispheres (SAPK/JNK; no differences between hemispheres)	phosphorylation of p54 versus the ranitidine/DOPA formulation groups (SAPK/JNK; ranitidine alone group)
N[C@@H](Cc1ccc(O)c(O)c1)C(=O)O [L-DOPA, L-3,4-dihydroxyphenylalanine]	significantly increased on the lesioned side	elevated	–
CN/C(=C\[N+](=O)[O-])NCCSCc1ccc(CN(C)C)o1 [Ranitidine, N-(2-[(5-[(dimethylamino)methyl]furan-2-yl)methylthio]ethyl)-N′-methyl-2-nitroethene-1,1-diamine]	no effects	–	reduced in both the intact and lesioned hemispheres
